Key:
[1] = tested on: common carotid artery intima-media thickness in asymptomatic subjects with a carotid plaque; experiment: Carotid ultrasound, change in mean intima-media thickness (IMTmean) in the common carotid artery, 36 months double-blind placebo-controlled trial; format: in vivo, human; conditions: for Common carotid IMTmean, Δ 18 months to baseline (± SD) / Common carotid IMTmean, Δ 36 months to baseline (± SD): mean change; for Common carotid IMTmean, 18 months (± SD): mean value at 18 months follow-up, metoprolol 25 mg o.d. / fluvastatin 40 mg o.d., factorial groups; for Common carotid IMTmean, 36 months (± SD): mean value at 36 months follow-up; for Common carotid IMTmean, Δ between groups at 36 months (95% CI): versus placebo
Text: (§1) The study population consisted of asymptomatic men and women, aged 49 to 70 years, with a plaque in the right carotid artery. A random 50% of those who entered the study were invited to take part in a study on the epidemiology of carotid artery disease. 1548 subjects came to the enrolment examination (visit one) including medical history, physical examination, laboratory measurements and a two-dimensional B-mode ultrasound of the right carotid artery. Subjects with a qualifying lesion in the right carotid artery, and who had no contraindications to the study protocol were invited to take part. In all, 793 subjects were eligible for randomization. All participants provided written informed consent Major exclusion criteria were history of myocardial infarction, angina pectoris or stroke within the preceding three months, history of surgical intervention in the right carotid artery, regular use of beta-blockers or stating, blood pressure above 160 systolic or 95 mm Hg diastolic, hypercholesterolemia (>8.0 mmol/L), hyperglycemia requiring or suspected to require insulin treatment, and conditions which in the opinion of the investigator rendered the subject unsuitable for the trial. […] Death and incidence of major cardiovascular endpoints were monitored. […] Throughout the trial an Acuson 128 […] (Acuson, Mountain View, Calif.) with a 7 MHz transducer was used. The examination procedure and image analysis, as described elsewhere ([…] et al., Clin Physiol, 11:565-577, 1991; […] et al., Stroke, 28:2195-2200, 1997) was performed by specially trained sonographers certified upon completion of an extensive educational program (Berglund, et al., J Intern Med, 236:581-586, 1994). In brief, the right carotid bifurcation was scanned within a pre-defined window comprising three centimeters of the distal common carotid artery, the bifurcation and one centimeter of the internal and external carotid arteries, respectively, for the presence of plaques, defined as focal intima-media thickenings above 1.2 mm. Thickness of the intima-media complex was measured in the far wall according to the leading edge principle, using a specially designed computer-assisted image analyzing system based on automated detection of the echo structures, but with the option to make manual corrections by the operator. Each image was analyzed without knowledge of the subjects' randomization group. From previous experience (Furberg et al., Circulation, 90:1679-1687, 1994) it was anticipated that the annual carotid artery […] progression rate in the placebo group would be approximately 15 μm per year with a standard deviation of 30 μm. […] The primary effect variables, change in […], and […] Bulb, was analyzed in a linear model with change in IMT as dependent variable and with treatment as a factor. Baseline IMTs and time between measurements were included in the model as covariates.

[2] = tested on: cardiovascular (CVD) events in asymptomatic subjects with a carotid plaque; experiment: Incidence of cardiovascular events during follow-up; format: in vivo, human; conditions: metoprolol versus 13 cases placebo, p=0.055; fluvastatin versus 11 cases placebo, p=0.350
Text: Death and incidence of major cardiovascular endpoints were monitored.

[3] = tested on: carotid bulb intima-media thickness in asymptomatic subjects with a carotid plaque; experiment: Carotid ultrasound, change in maximum intima-media thickness (IMTmax) in the carotid bulb (bifurcation), 36 months double-blind placebo-controlled trial; format: in vivo, human; conditions: for Bifurcation carotid IMTmean, Δ 18 months to baseline (± SD) / Bifurcation carotid IMTmean, Δ 36 months to baseline (± SD): mean change; for Bifurcation carotid IMTmean, 18 months (± SD): mean value at 18 months follow-up; for Bifurcation carotid IMTmean, 36 months (± SD): mean value at 36 months follow-up; for Bifurcation carotid IMTmean, Δ between groups at 36 months (95% CI): versus placebo
Text: as §1

[4] = human, in vivo, 36 months
Description: A large scale clinical trial was designed to investigate the effect of low dose betablocker metoprolol on the progression of carotid IMT versus placebo and clinical outcome measures during 36 months double-blind treatment in asymptomatic subjects with a carotid plaque. The study was a randomized, double blind, parallel group, placebo-controlled, single-center study.
The randomization procedure was performed by using a computer generated randomization scheme. Participants were, according to a factorial design, randomly assigned to one of four drug combination groups: placebo/placebo, metoprolol (25 mg o.d)/placebo, fluvastatin (40 mg o.d.)/placebo or metoprolol (25 mg o.d.)/fluvastatin (40 mg o.d.). The placebo was manufactured to exactly resemble the metoprolol CR/XL tablets (AstraZeneca AB, Mölndal, Sweden), and fluvastatin (Novartis Ltd, Basel, Switzerland) capsules, respectively.
Safety and tolerability pattern during treatment with fluvastatin or metoprolol, was evaluated by comparing adverse events and laboratory findings to placebo. Death and incidence of major cardiovascular endpoints were monitored.
Every participant was seen four times during the first year (after one, three, six and twelve months) and every 6 months thereafter. Weight was obtained every six months and a fasting lipid profile (total cholesterol, LDL-lipoprotein, HDL-lipoprotein and triglycerides) was determined every year. Liver transaminases (AST, ALT) and creatine kinase (CK) were obtained at every visit during the first year and then every year thereafter. AST or ALT values ≧3 times, and CK values ≧10 times the upper limit of normal was considered elevated during the study. […] Subjects with high serum cholesterol or triglycerides were advised to a low-fat diet and if evidence of persistent high cholesterol values such subjects were referred to an independent specialist of lipid disorders without knowledge of the subjects randomization assignment. […]

[5] = Metabolic and physiological effects of treatment in the clinical trial; format: in vivo, human
Description: A large scale clinical trial was designed to investigate the effect of low dose betablocker metoprolol on the progression of carotid IMT versus placebo and clinical outcome measures during 36 months double-blind treatment in asymptomatic subjects with a carotid plaque. The study was a randomized, double blind, parallel group, placebo-controlled, single-center study. The randomization procedure was performed by using a computer generated randomization scheme. Participants were, according to a factorial design, randomly assigned to one of four drug combination groups: placebo/placebo, metoprolol (25 mg o.d)/placebo, fluvastatin (40 mg o.d.)/placebo or metoprolol (25 mg o.d.)/fluvastatin (40 mg o.d.). The placebo was manufactured to exactly resemble the metoprolol CR/XL tablets (AstraZeneca AB, […] , Sweden), and fluvastatin (Novartis Ltd, Basel, Switzerland) capsules, respectively. Every participant was seen four times during the first year (after one, three, six and twelve months) and every 6 months thereafter. Weight was obtained every six months and a fasting lipid profile (total cholesterol, LDL-lipoprotein, HDL-lipoprotein and triglycerides) was determined every year. Liver transaminases (AST, ALT) and creatine kinase (CK) were obtained at every visit during the first year and then every year thereafter. AST or ALT values ≧3 times, and CK values ≧10 times the upper limit of normal was considered elevated during the study. Carotid ultrasound investigation was performed at baseline and after 18 and 36 months treatment.

[6] = in comparison to the placebo group

SMILES | Common carotid IMTmean, Δ 18 months to baseline (± SD) [1] | Common carotid IMTmean, Δ 36 months to baseline (± SD) [1] | Common carotid IMTmean, 18 months (± SD) [1] | Common carotid IMTmean, 36 months (± SD) [1] | Common carotid IMTmean, Δ between groups at 36 months (95% CI) [1] | CVD events during follow-up [2] | Bifurcation carotid IMTmean, Δ 18 months to baseline (± SD) [3] | Bifurcation carotid IMTmean, Δ 36 months to baseline (± SD) [3] | Bifurcation carotid IMTmean, 18 months (± SD) [3] | Bifurcation carotid IMTmean, 36 months (± SD) [3] | Bifurcation carotid IMTmean, Δ between groups at 36 months (95% CI) [3] | Permanent withdrawal from randomized treatment [4] | also measured
CC(C)n1c(/C=C/C(O)CC(O)CC(=O)O)c(-c2ccc(F)cc2)c2ccccc21 (centres unmarked) [Fluvastatin, fluvastatin] | −5 ± 11 μm | 11 ± 11 μm | 890 ± 196 μm | 905 ± 205 μm | −25 (−44 to −7) μm | 7 cases | 63 ± 334 μm | 170 ± 374 μm | 1965 ± 554 μm | 2095 ± 652 μm | −41 (−102 to 19) μm | 21% | IMTmean CCA progression, mean difference of yearly change between groups ([1]; compared with placebo after 36 months of treatment, 95% CI −15 to −3, p=0.002): −9 μm; frequency of transiently high liver enzymes ([4]; female): 10.2%
COCCc1ccc(OCC(O)CNC(C)C)cc1 (centres unmarked) [Metoprolol, metoprolol] | −5 ± 12 μm | 22 ± 13 μm | 908 ± 205 μm | 934 ± 220 μm | −2 (−20 to 17) μm | 5 cases | 23 ± 325 μm | 154 ± 411 μm | 1937 ± 572 μm | 2003 ± 624 μm | −73 (−133 to −13) μm | 15% | effect on other metabolic variables ([5]; compared to the placebo group): no effect; change of blood pressure [5, 6]: not significantly changed; change of lumen diameter [5, 6]: not significantly changed; decrease of mean heart rate in comparison to the placebo group ([5]; metoprolol 25 mg o.d.): 2.5 beats per min; increase of serum triglycerides compared to the placebo group ([5]; metoprolol 25 mg o.d.): 0.14 mmol/L; reduced the rate of progression of IMTmean CCA compared with placebo ([1]; after 36 months of treatment, result in words): not; carotid IMTmaxBulb progression, mean difference of yearly change between groups ([3]; after 18 months of treatment, 95% CI −94 to −23, p=0.004): −58 μm; carotid IMTmaxBulb progression, mean difference of yearly change between groups ([3]; after 36 months, subgroup with serum cholesterol at baseline, 95% CI −87 to −19, p=0.001): −53 μm; carotid IMTmaxBulb progression, mean difference of yearly change between groups ([3]; compared with placebo after 36 months of treatment, 95% CI −44 to −3, p=0.014): −23 μm

Source: patent US20060252814A1, “Formulation comprising a betablocker and optionally a cholestrol-lowering agent” (AstraZeneca AB, priority 2000, published 2006)
